Laboratory results as given in patent US20250296938A1, “Compounds that Interact with the Ras Superfamily for the Treatment of Cancers, Inflammatory Diseases, Rasopathies, and Fibrotic Disease” (SHY Therapeutics, LLC, priority 2018, published 2025).
Like-named read-outs stand apart in the source and are kept apart here.

Legend:
Assay in all cases: Ras GTP binding domain inhibition assay (Cy3-GTP/Cy5-GTP competition)
Rac-1 = Rac-1 (Homo sapiens, UniProt P63000)
In short: (§1)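 First, His-tagged protein is coated on nickel wells overnight at 4 °C. Next, compound (20 μM single point or serial dilution) is added for 3 h at room temperature, with or without Sos exchange factor in the last hour. Finally, 100 nM labelled GTP binds for 45 min and retained signal is measured.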

KRas G12D mutant = target: T1, KRas G12D mutant (Homo sapiens, UniProt P01116, G12D); settings: at 20 μM
T1 construct: fused on or other part: His tag, used for capture on nickel-coated plates
In short: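 His-tagged Ras proteins were captured on nickel-coated wells in Buffer-I (25 mM Tris-HCl pH 7.4, 27 mM KCl, 137 mM NaCl, 1 mM MgCl2, 1 mM DTT) or Buffer-II (50 mM Tris-HCl pH 7.0). Compounds (20 μM or serial dilution, 1% DMSO) were incubated 3 h at RT, ±Sos(556-1049) in the final hour. Bound Cy3-/Cy5-GTP (100 nM, 45 min) was read after washing.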

Rho-A = Rho-A (Homo sapiens, UniProt P61586)
In short: as §1

[1] = with SOS, read-out: Rac-1 + SOS: % inh.
[2] = without SOS, read-out: Rac-1: % inh.
[3] = with SOS, read-out: KRas G12D mutant + SOS: % inh.
[4] = without SOS, read-out: KRas G12D mutant: % inh.
[5] = with SOS, read-out: Rho-A + SOS: % inh.
[6] = without SOS, read-out: Rho-A: % inh.

inhibition at 20 µM (Rac-1; [1])	inhibition at 20 µM (Rac-1; [2])	inhibition at 20 µM (KRas G12D mutant; [3])	inhibition at 20 µM (KRas G12D mutant; [4])	inhibition at 20 µM (Rho-A; [5])	inhibition at 20 µM (Rho-A; [6])	Compound
51 to 75%	51 to 75%	1 to 25%	1 to 25%	26 to 50%	26 to 50%	COCCN(C)C(=O)c1nc(-c2ccccn2)nc(O)c1O [drawing 945]
76 to 100%	76 to 100%	76 to 100%	76 to 100%	76 to 100%	76 to 100%	COCCNC(=O)c1sc2nc(-c3nccn3C)nc(N[C@@H]3CC[C@H](OC)C3)c2c1-c1ccccc1 [drawing 1060]
0%	0%	76 to 100%	26 to 50%	76 to 100%	26 to 50%	COC1CCN(c2nc(-c3nccn3C)nc3sc(-c4cnn(C)c4)c(-c4ccccc4)c23)C1 (stereo not drawn) [drawing 970]
1 to 25%	1 to 25%	51 to 75%	26 to 50%	26 to 50%	1 to 25%	COC1CCN(c2nc(-c3nccn3C)nc3sc(Br)c(-c4ccccc4)c23)C1 (stereo not drawn) [drawing 957]
76 to 100%	76 to 100%	26 to 50%	51 to 75%	51 to 75%	51 to 75%	CCOc1cccc(Nc2nc(-c3ccccn3)nc(O)c2OC)c1 [drawing 1017]
51 to 75%	51 to 75%	26 to 50%	26 to 50%	51 to 75%	51 to 75%	COc1c(O)nc(-c2ccccn2)nc1Nc1ccccc1 [drawing 1015]
0%	1 to 25%	0%	0%	1 to 25%	0%	COc1nc(-c2ccccn2)nc(Nc2cnn(C)c2)c1OC [drawing 929]
51 to 75%	51 to 75%	51 to 75%	51 to 75%	26 to 50%	0%	O=C(NCc1ccccc1)c1nc(-c2ccccn2)nc(O)c1O [drawing 956]
51 to 75%	76 to 100%	76 to 100%	76 to 100%	51 to 75%	51 to 75%	Cc1c(-c2ccn(C)n2)sc2nc(-c3nccn3C)nc(NCCCS(C)(=O)=O)c12 [drawing 1051]
51 to 75%	76 to 100%	26 to 50%	51 to 75%	51 to 75%	26 to 50%	Cn1ccnc1-c1nc(O)c(O)c(C(=O)NC2CCC2)n1 [drawing 960]
26 to 50%	1 to 25%	1 to 25%	26 to 50%	0%	26 to 50%	Cn1ccc(-c2sc3nc(-c4nccn4C)nc(NCC4CCOC4)c3c2-c2ccccc2)n1 (stereo not drawn) [drawing 996]
76 to 100%	76 to 100%	26 to 50%	26 to 50%	76 to 100%	51 to 75%	COc1c(O)nc(-c2ccccn2)nc1Oc1ccccc1 [drawing 948]
26 to 50%	51 to 75%	26 to 50%	26 to 50%	51 to 75%	26 to 50%	CC(C)CN(C)C(=O)c1nc(-c2ccccn2)nc(O)c1O [drawing 933]
51 to 75%	26 to 50%	51 to 75%	51 to 75%	26 to 50%	26 to 50%	COC1CCN(c2nc(-c3nccn3C)nc3sc(-c4ccnc(N(C)C)c4)c(-c4ccccc4)c23)C1 (stereo not drawn) [drawing 958]
1 to 25%	26 to 50%	51 to 75%	51 to 75%	26 to 50%	1 to 25%	COc1cc(-c2sc3nc(-c4nccn4C)nc(N4CCC(OC)C4)c3c2-c2ccccc2)ccn1 (stereo not drawn) [drawing 980]
26 to 50%	26 to 50%	26 to 50%	51 to 75%	0%	1 to 25%	COCCCN(C)c1nc(-c2nccn2C)nc2sc(-c3ccn(C)n3)c(-c3ccccc3)c12 [drawing 1000]
1 to 25%	1 to 25%	0%	1 to 25%	0%	0%	COc1ccc(Cn2cnc(-c3nc(O)c4scc(-c5ccccn5)c4n3)c2)cc1 [drawing 974]

inhibition at 20 µM (Rac-1; [1])	inhibition at 20 µM (Rac-1; [2])	inhibition at 20 µM (KRas G12D mutant; [3])	inhibition at 20 µM (KRas G12D mutant; [4])	inhibition at 20 µM (Rho-A; [5])	inhibition at 20 µM (Rho-A; [6])	Compound
26 to 50%	26 to 50%	26 to 50%	26 to 50%	26 to 50%	26 to 50%	Cn1ccc(-c2sc3nc(-c4nccn4C)nc(O)c3c2-c2ccccc2)n1 [drawing 1039]
26 to 50%	1 to 25%	1 to 25%	26 to 50%	1 to 25%	1 to 25%	Oc1nc(-c2cn3ccccc3n2)nc2c(-c3ccccn3)csc12 [drawing 951]
1 to 25%	26 to 50%	51 to 75%	51 to 75%	76 to 100%	51 to 75%	COC1CCN(c2nc(-c3nccn3C)nc3sc(-c4ccnn4C)c(-c4ccccc4)c23)C1 (stereo not drawn) [drawing 972]
76 to 100%	76 to 100%	76 to 100%	51 to 75%	76 to 100%	76 to 100%	CO[C@H]1C[C@@H](Nc2nc(-c3nccn3C)nc3sc(-c4cnn(C)c4)c(-c4ccccc4)c23)C1 [drawing 1027]
76 to 100%	76 to 100%	26 to 50%	51 to 75%	76 to 100%	51 to 75%	O=C(NC1CCC1)c1nc(-c2ccccn2)nc(O)c1O [drawing 944]
76 to 100%	76 to 100%	51 to 75%	51 to 75%	76 to 100%	76 to 100%	CO[C@H]1CC[C@@H](Nc2nc(-c3nccn3C)nc3sc(C(=O)N4CCCC4)c(-c4ccccc4)c23)C1 [drawing 1061]
51 to 75%	76 to 100%	26 to 50%	76 to 100%	51 to 75%	51 to 75%	COc1ccc(Oc2nc(-c3ccccn3)nc(O)c2OC)cc1 [drawing 950]
76 to 100%	51 to 75%	1 to 25%	51 to 75%	51 to 75%	51 to 75%	CC(C)CNC(=O)c1nc(-c2ccccn2)nc(O)c1O [drawing 946]
26 to 50%	51 to 75%	76 to 100%	1 to 25%	51 to 75%	51 to 75%	COCCNc1nc(-c2nccn2C)nc2sc(-c3cccc(OC)c3Cl)c(-c3ccccc3)c12 [drawing 1007]
26 to 50%	26 to 50%	1 to 25%	26 to 50%	26 to 50%	26 to 50%	COc1nc(-c2ccccn2)nc2c(-c3ccccn3)csc12 [drawing 1048]
1 to 25%	0%	51 to 75%	1 to 25%	1 to 25%	0%	COc1cccc(-c2sc3nc(-c4nccn4C)nc(N4CCC(OC)C4)c3c2-c2cscn2)c1 (stereo not drawn) [drawing 1002]
1 to 25%	26 to 50%	51 to 75%	51 to 75%	26 to 50%	26 to 50%	COCC(C)Nc1nc(-c2nccn2C)nc2sc(-c3cccc(OC)c3)c(-c3cscn3)c12 (stereo not drawn) [drawing 990]
76 to 100%	76 to 100%	51 to 75%	76 to 100%	51 to 75%	51 to 75%	COCCn1ccnc1-c1nc(O)c2scc(-c3ccccn3)c2n1 [drawing 987]
76 to 100%	76 to 100%	51 to 75%	26 to 50%	76 to 100%	76 to 100%	CO[C@H]1CC[C@@H](Nc2nc(-c3nccn3C)nc3sc(-c4ccn(C)n4)c(C)c23)C1 [drawing 1050]
51 to 75%	26 to 50%	51 to 75%	51 to 75%	51 to 75%	51 to 75%	COc1ncccc1-c1sc2nc(-c3nccn3C)nc(N3CCC(OC)C3)c2c1-c1ccccc1 (stereo not drawn) [drawing 978]
51 to 75%	51 to 75%	26 to 50%	51 to 75%	51 to 75%	51 to 75%	COc1c(O)nc(-c2ccccn2)nc1Oc1ccc(C(=O)N(C)C)cc1 [drawing 1014]
